# Results: patent publication US20120214862A1, “MODULATION OF FACTOR 7 EXPRESSION” (ISIS Pharmaceuticals, Inc., priority 2009, published 2012)
# Where two headings read alike, the source gives them in different places. e = 2'-O-(2-methoxyethyl) (MOE); d = 2'-deoxy (DNA)
# What was measured:
# murine Factor 7 mRNA = assay: Liver Factor 7 mRNA by real-time RT-PCR in treated BALB/c mice; format: in vivo, mouse; conditions: for % inhibition of murine Factor 7 mRNA: BALB/c liver; for % inhibition of murine Factor 7 mRNA / % inhibition of Factor 7 mRNA: relative to PBS control; for % inhibition of Factor 7 mRNA: liver; for % inhibition of Factor 7 mRNA (liver): mice
# Method: A control group of mice was injected subcutaneously with PBS twice a week for 3 weeks. After the treatment period, whole liver was collected for RNA and protein analysis, and plasma was collected for clotting analysis (PT/aPTT).
# (§1) RNA was extracted from liver tissue for real-time RT-PCR analysis of Factor 7.
# A control group of 3 mice was injected with a single dose of PBS, and mice in this group were sacrificed on day 1. Mice in all groups were sacrificed by cervical dislocation following anesthesia with 150 mg/kg ketamine mixed with 10 mg/kg xylazine administered by intraperitoneal injection. Liver was harvested for RNA analysis and plasma was collected for clotting analysis (PT and aPTT).
# as §1
# Mice from the first group were sacrificed on days 1 and 3 after the single dose. […] A control group of 3 mice was injected with PBS in a single dose. Mice from the control group were sacrificed 1 day later. Mice in all groups were sacrificed by cervical dislocation following anesthesia with 150 mg/kg ketamine mixed with 10 mg/kg xylazine administered by intraperitoneal injection. Liver was harvested for RNA analysis and plasma was collected for clotting analysis (PT and aPTT) for mice in all groups.
# RNA was extracted from liver tissue for quantitative RT-PCR analysis of Factor 7.
# Two control groups of BALB/c mice were treated with PBS, administered subcutaneously twice a week for 3 weeks. Thrombus formation was induced with FeCl3 in half of the mice while the rest of the mice were assayed for tail bleeding. […] Thrombus formation was induced with FeCl3 in all groups of the VT mice except the first control group.
# as §1
# A fifth group of BALB/c mice was treated with 3 mg/kg of warfarin, administered intraperioneally daily for 6 days. Four hours after the last dose of warfarin, mice were sacrificed. A control group of BALB/c mice were treated with PBS, administered subcutaneously twice a week for 3 weeks. Two days after the last dose of PBS, mice were anesthetized with 150 mg/kg ketamine mixed with 10 mg/kg xylazine administered by intraperitoneal injection. Thrombus formation was induced with FeCl3 in groups of mice except the first control group.
# murine Factor 7 protein = assay: Plasma Factor 7 protein, Factor 7 chromogenic assay (Hyphen BioMed), BALB/c mice; format: in vivo, mouse; conditions: for % inhibition of murine Factor 7 protein (plasma): relative to PBS control
# Method: BALB/c mice were treated with ISIS 403102 ([…], target site 11336, incorporated herein as SEQ ID NO: 161). BALB/c mice were injected subcutaneously with 5 mg/kg, 10 mg/kg, 25 mg/kg, or 50 mg/kg of ISIS 403102 twice a week for 3 weeks. A control group of mice was injected subcutaneously with PBS twice a week for 3 weeks. After the treatment period, whole liver was collected for RNA and protein analysis, and plasma was collected for clotting analysis (PT/aPTT).
# Plasma Factor 7 protein was measured using a Factor 7 chromogenic assay (Hyphen BioMed). […] Results are presented as percent inhibition of Factor 7, relative to control.
# BALB/c mice = conditions: mouse, in vivo
# [1] = single dose 50 mg/kg, BALB/c mice
sequence,measurement,setting,value
"CCATAGAACAGCTTCACAGG (sugars from the 5' end e5 d10 e5, backbone and methylation of C not given here) [ISIS 403102]",% inhibition of murine Factor 7 mRNA,murine Factor 7 mRNA; 5 mg/kg sc twice a week for 3 weeks,64%
same,% inhibition of murine Factor 7 mRNA,murine Factor 7 mRNA; 10 mg/kg sc twice a week for 3 weeks,84%
same,% inhibition of murine Factor 7 mRNA,murine Factor 7 mRNA; 25 mg/kg sc twice a week for 3 weeks,96%
same,% inhibition of murine Factor 7 mRNA,murine Factor 7 mRNA; 50 mg/kg sc twice a week for 3 weeks,99%
same,reduction of murine Factor 7 (liver mRNA) over PBS control,"murine Factor 7 mRNA; 5-50 mg/kg sc twice a week for 3 weeks, BALB/c mice",dose-dependent reduction
same,% Inhibition of murine Factor 7 mRNA (liver),"murine Factor 7 mRNA; BALB/c mice, single dose 50 mg/kg, day 1",61%
same,% Inhibition of murine Factor 7 mRNA (liver),"murine Factor 7 mRNA; BALB/c mice, single dose 50 mg/kg, day 2",87%
same,% Inhibition of murine Factor 7 mRNA (liver),"murine Factor 7 mRNA; BALB/c mice, single dose 50 mg/kg, day 3",92%
same,% Inhibition of murine Factor 7 mRNA (liver),"murine Factor 7 mRNA; BALB/c mice, single dose 50 mg/kg, day 4",92%
same,% Inhibition of murine Factor 7 mRNA (liver),"murine Factor 7 mRNA; BALB/c mice, single dose 50 mg/kg, day 6",86%
same,% Inhibition of murine Factor 7 mRNA (liver),"murine Factor 7 mRNA; BALB/c mice, single dose 50 mg/kg, day 8",80%
same,% Inhibition of murine Factor 7 mRNA (liver),"murine Factor 7 mRNA; BALB/c mice, single dose 50 mg/kg, day 12",72%
same,% Inhibition of murine Factor 7 mRNA (liver),"murine Factor 7 mRNA; BALB/c mice, single dose 50 mg/kg, day 24",11%
same,% Inhibition of murine Factor 7 mRNA (liver),"murine Factor 7 mRNA; BALB/c mice, single dose 50 mg/kg, day 56",0%
same,Factor 7 inhibition over time,"murine Factor 7 mRNA; Example 13, 6 doses of 25 mg/kg sc, days 14, 28, 42 and 56 after last dose",declined progressively
same,"inhibition of Factor 7 mRNA, onset","murine Factor 7 mRNA; Example 13, single dose 25 mg/kg sc",inhibition of Factor 7 as early as day 1
same,reduction of Factor 7 mRNA in comparison to the PBS control,"murine Factor 7 mRNA; Example 14, 25, 37.5 or 50 mg/kg sc twice a week for 3 weeks, FeCl3 VT model",significant dose-dependent reduction
same,reduction of Factor 7 mRNA in comparison to the PBS control,"murine Factor 7 mRNA; Example 15, 5-40 mg/kg sc twice a week for 3 weeks",significant dose-dependent reduction
same,% inhibition of Factor 7 mRNA,"murine Factor 7 mRNA; BALB/c mice, FeCl3 VT model (Example 15), 5 mg/kg s.c. twice a week for 3 weeks",59%
same,% inhibition of Factor 7 mRNA,"murine Factor 7 mRNA; BALB/c mice, FeCl3 VT model (Example 15), 10 mg/kg s.c. twice a week for 3 weeks",84%
same,% inhibition of Factor 7 mRNA,"murine Factor 7 mRNA; BALB/c mice, FeCl3 VT model (Example 15), 20 mg/kg s.c. twice a week for 3 weeks",95%
same,% inhibition of Factor 7 mRNA,"murine Factor 7 mRNA; BALB/c mice, FeCl3 VT model (Example 15), 40 mg/kg s.c. twice a week for 3 weeks",99%
same,% inhibition of Factor 7 mRNA,"murine Factor 7 mRNA; BALB/c mice, FeCl3 VT model, 25 mg/kg s.c. twice a week for 3 weeks",24%
same,% inhibition of Factor 7 mRNA,"murine Factor 7 mRNA; BALB/c mice, FeCl3 VT model, 37.5 mg/kg s.c. twice a week for 3 weeks",74%
same,% inhibition of Factor 7 mRNA,"murine Factor 7 mRNA; BALB/c mice, FeCl3 VT model, 50 mg/kg s.c. twice a week for 3 weeks",69%
same,% inhibition of Factor 7 mRNA (liver),"murine Factor 7 mRNA; 25 mg/kg s.c. twice a week, 2 doses, 3 days after last dose",86%
same,% inhibition of Factor 7 mRNA (liver),"murine Factor 7 mRNA; 25 mg/kg s.c. twice a week, 4 doses, 3 days after last dose",91%
same,% inhibition of Factor 7 mRNA (liver),"murine Factor 7 mRNA; 25 mg/kg s.c. twice a week, 6 doses, 2 days after last dose",83%
same,% inhibition of Factor 7 mRNA (liver),"murine Factor 7 mRNA; 25 mg/kg s.c. twice a week, 6 doses, 7 days after last dose",88%
same,% inhibition of Factor 7 mRNA (liver),"murine Factor 7 mRNA; 25 mg/kg s.c. twice a week, 6 doses, 14 days after last dose",64%
same,% inhibition of Factor 7 mRNA (liver),"murine Factor 7 mRNA; 25 mg/kg s.c. twice a week, 6 doses, 28 days after last dose",33%
same,% inhibition of Factor 7 mRNA (liver),"murine Factor 7 mRNA; 25 mg/kg s.c. twice a week, 6 doses, 42 days after last dose",5%
same,% inhibition of Factor 7 mRNA (liver),"murine Factor 7 mRNA; 25 mg/kg s.c. twice a week, 6 doses, 56 days after last dose",11%
same,% inhibition of Factor 7 mRNA (liver),"murine Factor 7 mRNA; 25 mg/kg s.c., 1 dose, 1 day after last dose",44%
same,% inhibition of Factor 7 mRNA (liver),"murine Factor 7 mRNA; 25 mg/kg s.c., 1 dose, 3 days after last dose",74%
same,duration of action,murine Factor 7 mRNA; [1],at least 24 days
same,peak effect of a single dose occurs on,murine Factor 7 mRNA; [1],~4 days
same,inhibition of Factor 7 mRNA,"murine Factor 7 mRNA; single dose 50 mg/kg, day 4",92%
same,inhibition of Factor 7 mRNA,"murine Factor 7 mRNA; single dose 50 mg/kg, day 24",11%
same,Factor 7 mRNA levels,"murine Factor 7 mRNA; single dose 50 mg/kg, day 56",equal to that of the PBS control
same,% inhibition of murine Factor 7 protein (plasma),murine Factor 7 protein; 5 mg/kg s.c. twice a week for 3 weeks,71%
same,% inhibition of murine Factor 7 protein (plasma),murine Factor 7 protein; 10 mg/kg s.c. twice a week for 3 weeks,88%
same,% inhibition of murine Factor 7 protein (plasma),murine Factor 7 protein; 25 mg/kg s.c. twice a week for 3 weeks,99%
same,% inhibition of murine Factor 7 protein (plasma),murine Factor 7 protein; 50 mg/kg s.c. twice a week for 3 weeks,99%
same,reduction of murine Factor 7 protein over PBS control,"murine Factor 7 protein; 5-50 mg/kg sc twice a week for 3 weeks, plasma",dose-dependent reduction
same,amount of bleeding in comparison to PBS treated mice,BALB/c mice,slight decrease in the amount of bleeding
same,bleeding as compared to PBS control mice,BALB/c mice,did not significantly affect bleeding
same,Blood,"BALB/c mice; sc, 25 mg/kg",0.06 g
same,Blood,"BALB/c mice; sc, 37.5 mg/kg",0.06 g
same,Blood,"BALB/c mice; sc, 40 mg/kg",0.10 g
same,bleeding compared to PBS treated mice,"BALB/c mice; sc, 40 mg/kg",less bleeding than PBS treated mice
same,Blood,"BALB/c mice; sc, 50 mg/kg",0.10 g
same,amount of bleeding in comparison to PBS treated mice,"BALB/c mice; sc, 50 mg/kg",Bleeding was the same
